Read-outs that look alike come from different tables or passages of the source.
What was measured:
kinases (468) [1] = target: kinases (468) (Homo sapiens, UniProt O00444); conditions: PLK4; 1000 nM
kinases (468) [2] = target: kinases (468) (Homo sapiens, UniProt O14936); conditions: CASK; 1000 nM
kinases (468) [3] = target: kinases (468) (Homo sapiens, UniProt O95835); conditions: LATS1; 1000 nM
kinases (468) [4] = target: kinases (468) (Homo sapiens, UniProt P00519, F317L); conditions: 1000 nM
kinases (468) [5] = target: kinases (468) (Homo sapiens, UniProt P00519, H396P); conditions: 1000 nM
kinases (468) [6] = target: kinases (468) (Homo sapiens, UniProt P00533, DEL746-750); conditions: EGFR(E746-A750del); 1000 nM
kinases (468) [7] = target: kinases (468) (Homo sapiens, UniProt P08581); conditions: MET; 1000 nM
kinases (468) [8] = target: kinases (468) (Homo sapiens, UniProt P08922); conditions: kinase ROS1 (Entrez ROS1); compound concentration 1000 nM
kinases (468) [9] = target: kinases (468) (Homo sapiens, UniProt P15056); conditions: BRAF; 1000 nM
kinases (468) [10] = target: kinases (468) (Homo sapiens, UniProt P21860); conditions: ERBB3; 1000 nM
kinases (468) [11] = target: kinases (468) (Homo sapiens, UniProt P23443); conditions: kinase S6K1 (Entrez RPS6KB1); compound concentration 1000 nM
kinases (468) [12] = target: kinases (468) (Homo sapiens, UniProt P29323); conditions: EPHB2; 1000 nM
kinases (468) [13] = target: kinases (468) (Homo sapiens, UniProt P36888, D835H); conditions: FLT3(D835H); 1000 nM
kinases (468) [14] = target: kinases (468) (Homo sapiens, UniProt P36894); conditions: BMPR1A; 1000 nM
Sequence of kinases (468) (Homo sapiens, UniProt P36894) (P36894 24-532): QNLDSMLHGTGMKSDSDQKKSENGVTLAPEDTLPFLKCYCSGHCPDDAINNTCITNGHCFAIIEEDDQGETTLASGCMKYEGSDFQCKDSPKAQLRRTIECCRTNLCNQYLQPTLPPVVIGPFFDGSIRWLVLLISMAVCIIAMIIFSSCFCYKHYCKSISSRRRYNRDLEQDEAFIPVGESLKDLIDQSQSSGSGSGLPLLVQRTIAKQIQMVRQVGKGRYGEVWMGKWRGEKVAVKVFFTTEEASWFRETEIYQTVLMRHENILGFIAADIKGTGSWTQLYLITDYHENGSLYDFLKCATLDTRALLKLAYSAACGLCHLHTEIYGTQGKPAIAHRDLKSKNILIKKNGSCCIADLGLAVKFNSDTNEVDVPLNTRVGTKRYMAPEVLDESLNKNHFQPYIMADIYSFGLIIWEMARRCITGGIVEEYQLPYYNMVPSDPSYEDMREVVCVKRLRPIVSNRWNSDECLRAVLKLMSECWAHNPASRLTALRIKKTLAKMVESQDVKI

kinases (468) [15] = target: kinases (468) (Homo sapiens, UniProt P41240); conditions: CSK; 1000 nM
kinases (468) [16] = target: kinases (468) (Homo sapiens, UniProt P42679); conditions: CTK (MATK); 1000 nM
kinases (468) [17] = target: kinases (468) (Homo sapiens, UniProt P48729); conditions: CSNK1A1; 1000 nM
kinases (468) [18] = target: kinases (468) (Homo sapiens, UniProt P49759); conditions: CLK1; 1000 nM
kinases (468) [19] = target: kinases (468) (Homo sapiens, UniProt P51957); conditions: NEK4; 1000 nM
kinases (468) [20] = target: kinases (468) (Homo sapiens, UniProt P54762); conditions: EPHB1; 1000 nM
kinases (468) [21] = target: kinases (468) (Homo sapiens, UniProt P78356); conditions: PIP5K2B (PIP4K2B); 1000 nM
Sequence of kinases (468) (Homo sapiens, UniProt P78356) (P78356 whole entry): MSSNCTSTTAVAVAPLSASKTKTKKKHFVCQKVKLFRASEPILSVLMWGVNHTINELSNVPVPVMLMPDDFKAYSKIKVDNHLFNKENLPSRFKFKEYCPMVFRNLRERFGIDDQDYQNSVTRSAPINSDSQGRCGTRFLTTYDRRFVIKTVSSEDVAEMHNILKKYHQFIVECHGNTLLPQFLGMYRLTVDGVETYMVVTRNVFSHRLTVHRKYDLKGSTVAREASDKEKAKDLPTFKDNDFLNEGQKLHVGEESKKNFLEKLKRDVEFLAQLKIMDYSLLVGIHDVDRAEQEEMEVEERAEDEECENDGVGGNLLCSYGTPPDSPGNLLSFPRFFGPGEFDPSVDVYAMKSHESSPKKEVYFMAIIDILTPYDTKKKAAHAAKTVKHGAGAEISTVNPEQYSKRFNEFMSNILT

kinases (468) [22] = target: kinases (468) (Homo sapiens, UniProt Q02156); conditions: PRKCE; 1000 nM
kinases (468) [23] = target: kinases (468) (Homo sapiens, UniProt Q12851); conditions: MAP4K2; 1000 nM
kinases (468) [24] = target: kinases (468) (Homo sapiens, UniProt Q13131); conditions: AMPK-alpha1 (PRKAA1); 1000 nM
kinases (468) [25] = target: kinases (468) (Homo sapiens, UniProt Q13523); conditions: PRP4 (PRPF4B); 1000 nM
kinases (468) [26] = target: kinases (468) (Homo sapiens, UniProt Q15303); conditions: ERBB4; 1000 nM
kinases (468) [27] = target: kinases (468) (Homo sapiens, UniProt Q16539); conditions: p38-alpha (MAPK14); 1000 nM
kinases (468) [28] = target: kinases (468) (Homo sapiens, UniProt Q16832); conditions: DDR2; 1000 nM
kinases (468) [29] = target: kinases (468) (Homo sapiens, UniProt Q8N752); conditions: CSNK1A1L; 1000 nM
kinases (468) [30] = target: kinases (468) (Homo sapiens, UniProt Q8TBX8); conditions: PIP5K2C (PIP4K2C); 1000 nM
kinases (468) [31] = target: kinases (468) (Homo sapiens, UniProt Q8WXR4); conditions: MYO3B; 1000 nM
kinases (468) [32] = target: kinases (468) (Homo sapiens, UniProt Q9H2G2); conditions: kinase SLK (Entrez SLK); compound concentration 1000 nM
Sequence of kinases (468) (Homo sapiens, UniProt Q9H2G2) (Q9H2G2 whole entry): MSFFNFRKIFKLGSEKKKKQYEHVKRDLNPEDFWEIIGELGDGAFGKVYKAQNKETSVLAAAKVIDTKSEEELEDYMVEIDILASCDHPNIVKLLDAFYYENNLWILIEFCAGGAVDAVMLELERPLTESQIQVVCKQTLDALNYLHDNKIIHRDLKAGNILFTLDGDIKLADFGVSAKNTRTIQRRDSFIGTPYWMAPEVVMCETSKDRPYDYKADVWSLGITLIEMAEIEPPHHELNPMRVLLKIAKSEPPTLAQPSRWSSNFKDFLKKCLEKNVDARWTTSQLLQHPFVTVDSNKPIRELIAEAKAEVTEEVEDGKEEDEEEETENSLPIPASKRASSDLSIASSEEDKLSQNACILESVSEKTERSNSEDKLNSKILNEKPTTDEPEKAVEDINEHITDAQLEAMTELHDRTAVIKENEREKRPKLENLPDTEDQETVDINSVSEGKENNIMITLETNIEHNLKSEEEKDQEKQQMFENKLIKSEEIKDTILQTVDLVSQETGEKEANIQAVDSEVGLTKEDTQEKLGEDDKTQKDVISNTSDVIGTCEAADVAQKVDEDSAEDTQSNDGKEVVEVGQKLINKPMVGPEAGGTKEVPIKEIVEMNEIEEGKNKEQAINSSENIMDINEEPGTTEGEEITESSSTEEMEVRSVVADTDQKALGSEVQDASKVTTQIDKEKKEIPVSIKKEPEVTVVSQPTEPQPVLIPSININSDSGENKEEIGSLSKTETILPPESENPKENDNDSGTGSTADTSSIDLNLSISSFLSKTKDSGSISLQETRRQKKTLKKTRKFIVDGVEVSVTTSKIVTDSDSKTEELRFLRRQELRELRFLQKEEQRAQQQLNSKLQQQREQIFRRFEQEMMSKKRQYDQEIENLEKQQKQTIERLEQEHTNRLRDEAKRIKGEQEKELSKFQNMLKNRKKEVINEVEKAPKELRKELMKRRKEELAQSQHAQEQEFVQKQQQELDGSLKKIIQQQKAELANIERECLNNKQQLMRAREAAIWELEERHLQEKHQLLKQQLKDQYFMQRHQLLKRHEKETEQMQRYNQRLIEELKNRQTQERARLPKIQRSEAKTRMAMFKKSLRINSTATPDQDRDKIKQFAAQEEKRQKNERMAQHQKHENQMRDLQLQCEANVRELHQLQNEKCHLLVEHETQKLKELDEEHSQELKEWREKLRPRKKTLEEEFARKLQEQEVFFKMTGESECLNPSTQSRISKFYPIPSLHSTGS

kinases (468) [33] = target: kinases (468) (Homo sapiens, UniProt Q9HBH9); conditions: MKNK2; 1000 nM
Sequence of kinases (468) (Homo sapiens, UniProt Q9HBH9) (Q9HBH9 whole entry): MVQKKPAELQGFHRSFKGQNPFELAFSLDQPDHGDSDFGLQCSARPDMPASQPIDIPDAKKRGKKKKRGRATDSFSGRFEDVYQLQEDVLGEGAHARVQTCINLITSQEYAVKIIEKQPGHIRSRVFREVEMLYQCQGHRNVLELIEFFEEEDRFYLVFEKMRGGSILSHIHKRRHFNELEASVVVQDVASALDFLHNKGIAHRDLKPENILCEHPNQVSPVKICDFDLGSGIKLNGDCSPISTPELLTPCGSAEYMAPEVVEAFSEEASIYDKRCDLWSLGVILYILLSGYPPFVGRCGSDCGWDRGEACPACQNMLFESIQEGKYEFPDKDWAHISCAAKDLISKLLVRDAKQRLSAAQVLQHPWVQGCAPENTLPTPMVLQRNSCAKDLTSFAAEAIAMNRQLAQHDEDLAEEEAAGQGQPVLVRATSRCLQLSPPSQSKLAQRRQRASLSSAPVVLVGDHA

kinases (468) [34] = target: kinases (468) (Homo sapiens, UniProt Q9P286); conditions: PAK7; 1000 nM
kinases (468) [35] = target: kinases (468) (Homo sapiens, UniProt Q9UL54); conditions: kinase TAOK2 (Entrez TAOK2); compound concentration 1000 nM
Sequence of kinases (468) (Homo sapiens, UniProt Q9UL54) (Q9UL54 whole entry): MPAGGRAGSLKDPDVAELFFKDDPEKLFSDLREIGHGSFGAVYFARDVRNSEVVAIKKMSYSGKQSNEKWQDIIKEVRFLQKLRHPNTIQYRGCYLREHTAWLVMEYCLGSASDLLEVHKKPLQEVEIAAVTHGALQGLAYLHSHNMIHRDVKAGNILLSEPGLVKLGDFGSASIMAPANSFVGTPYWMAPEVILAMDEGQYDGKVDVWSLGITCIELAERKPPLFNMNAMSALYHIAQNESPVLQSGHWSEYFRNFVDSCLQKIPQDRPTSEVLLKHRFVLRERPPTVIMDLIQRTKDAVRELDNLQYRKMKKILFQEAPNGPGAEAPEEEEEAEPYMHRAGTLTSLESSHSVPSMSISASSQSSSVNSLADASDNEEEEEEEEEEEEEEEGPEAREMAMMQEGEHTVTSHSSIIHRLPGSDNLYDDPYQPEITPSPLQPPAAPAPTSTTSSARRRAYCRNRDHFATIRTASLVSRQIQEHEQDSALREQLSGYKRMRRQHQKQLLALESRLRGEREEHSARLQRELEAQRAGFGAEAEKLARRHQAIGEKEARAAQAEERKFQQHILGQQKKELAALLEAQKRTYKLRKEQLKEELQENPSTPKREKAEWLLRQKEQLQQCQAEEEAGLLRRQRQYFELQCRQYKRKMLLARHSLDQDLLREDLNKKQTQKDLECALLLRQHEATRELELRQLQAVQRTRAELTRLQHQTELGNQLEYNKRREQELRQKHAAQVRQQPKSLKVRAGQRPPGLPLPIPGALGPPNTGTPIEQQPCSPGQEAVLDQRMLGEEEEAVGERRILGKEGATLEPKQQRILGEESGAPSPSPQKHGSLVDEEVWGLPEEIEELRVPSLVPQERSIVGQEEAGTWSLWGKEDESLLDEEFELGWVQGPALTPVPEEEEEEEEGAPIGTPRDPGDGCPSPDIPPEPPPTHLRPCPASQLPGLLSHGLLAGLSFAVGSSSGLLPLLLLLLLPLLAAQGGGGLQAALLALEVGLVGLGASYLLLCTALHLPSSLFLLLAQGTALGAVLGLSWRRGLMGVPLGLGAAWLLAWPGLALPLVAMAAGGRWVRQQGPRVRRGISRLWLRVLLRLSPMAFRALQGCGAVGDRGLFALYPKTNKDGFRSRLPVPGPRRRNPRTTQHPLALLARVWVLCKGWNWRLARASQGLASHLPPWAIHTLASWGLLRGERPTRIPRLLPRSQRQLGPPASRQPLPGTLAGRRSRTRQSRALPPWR

Sequence of kinases (468) (Homo sapiens, UniProt O95835) (O95835 whole entry): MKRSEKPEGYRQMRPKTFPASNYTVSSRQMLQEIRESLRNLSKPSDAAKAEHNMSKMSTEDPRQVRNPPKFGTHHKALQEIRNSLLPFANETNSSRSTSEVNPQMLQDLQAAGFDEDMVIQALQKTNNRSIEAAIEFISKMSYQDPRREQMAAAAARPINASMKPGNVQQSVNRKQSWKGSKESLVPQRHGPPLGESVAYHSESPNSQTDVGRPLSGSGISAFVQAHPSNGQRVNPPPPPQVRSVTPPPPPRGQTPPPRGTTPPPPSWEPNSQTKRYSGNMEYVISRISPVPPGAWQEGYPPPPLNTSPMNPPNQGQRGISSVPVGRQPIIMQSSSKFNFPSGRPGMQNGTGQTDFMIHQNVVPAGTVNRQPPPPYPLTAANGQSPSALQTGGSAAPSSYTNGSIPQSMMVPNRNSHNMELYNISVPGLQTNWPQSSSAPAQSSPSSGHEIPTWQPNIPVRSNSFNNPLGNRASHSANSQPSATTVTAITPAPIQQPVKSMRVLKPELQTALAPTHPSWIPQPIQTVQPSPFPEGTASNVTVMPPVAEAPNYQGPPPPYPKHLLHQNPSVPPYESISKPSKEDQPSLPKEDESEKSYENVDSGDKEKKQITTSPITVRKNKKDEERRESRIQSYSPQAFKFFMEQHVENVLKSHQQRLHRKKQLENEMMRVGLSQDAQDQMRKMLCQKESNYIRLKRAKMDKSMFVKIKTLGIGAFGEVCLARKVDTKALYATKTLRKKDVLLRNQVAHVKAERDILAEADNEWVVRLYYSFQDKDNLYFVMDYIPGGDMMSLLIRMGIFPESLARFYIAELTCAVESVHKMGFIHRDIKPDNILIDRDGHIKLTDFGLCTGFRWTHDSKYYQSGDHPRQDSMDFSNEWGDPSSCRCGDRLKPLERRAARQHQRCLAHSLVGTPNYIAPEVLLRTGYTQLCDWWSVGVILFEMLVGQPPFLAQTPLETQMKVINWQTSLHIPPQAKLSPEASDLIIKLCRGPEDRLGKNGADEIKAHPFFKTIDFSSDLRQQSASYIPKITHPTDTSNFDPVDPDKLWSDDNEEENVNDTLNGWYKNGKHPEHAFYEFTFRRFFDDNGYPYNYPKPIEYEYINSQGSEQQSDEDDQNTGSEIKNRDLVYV

Compound: C[C@H]1C[C@@H](O)CN(c2ncc(Cl)c(Nc3ccc4c(c3)c3c(c(=O)n4C)OCC(F)(F)[C@H](C4CC4)N3)n2)C1 [CCT373566_9A]
- Percent Control (kinases (468) [1]): 100%
- Percent Control (kinases (468) [2]): 92%
- Percent Control (kinases (468) [3]): 94%
- Percent Control (kinases (468) [4]; ABL1(F317L)-nonphosphorylated): 100%
- Percent Control (kinases (468) [4]; ABL1(F317L)-phosphorylated): 93%
- Percent Control (kinases (468) [5]; ABL1(H396P)-nonphosphorylated): 83%
- Percent Control (kinases (468) [5]; ABL1(H396P)-phosphorylated): 94%
- Percent Control (kinases (468) [6]): 100%
- Percent Control (kinases (468) [7]): 100%
- Percent Control (kinases (468) [8]): 100%
- Percent Control (kinases (468) [9]): 92%
- Percent Control (kinases (468) [10]): 85%
- Percent Control (kinases (468) [11]): 85%
- Percent Control (kinases (468) [12]): 96%
- Percent Control (kinases (468) [13]): 90%
- Percent Control (kinases (468) [14]): 100%
- Percent Control (kinases (468) [15]): 86%
- Percent Control (kinases (468) [16]): 100%
- Percent Control (kinases (468) [17]): 100%
- Percent Control (kinases (468) [18]): 94%
- Percent Control (kinases (468) [19]): 91%
- Percent Control (kinases (468) [20]): 99%
- Percent Control (kinases (468) [21]): 100%
- Percent Control (kinases (468) [22]): 98%
- Percent Control (kinases (468) [23]): 99%
- Percent Control (kinases (468) [24]): 100%
- Percent Control (kinases (468) [25]): 94%
- Percent Control (kinases (468) [26]): 99%
- Percent Control (kinases (468) [27]): 96%
- Percent Control (kinases (468) [28]): 100%
- Percent Control (kinases (468) [29]): 96%
- Percent Control (kinases (468) [30]): 82%
- Percent Control (kinases (468) [31]): 100%
- Percent Control (kinases (468) [32]): 100%
- Percent Control (kinases (468) [33]): 100%
- Percent Control (kinases (468) [34]): 96%
- Percent Control (kinases (468) [35]): 87%
